Source: paper PMC7315563, “Bioactive fluorenes. Part III: 2,7-dichloro-9H-fluorene-based thiazolidinone and azetidinone analogues as anticancer and antimicrobial against multidrug resistant strains agents” (BMC Chemistry, 2020)
In brackets after ≈: the same amount, converted by molar mass.

Legend:
[1] = tested on: P. aeruginosa; assay: MIC by broth microdilution method (resazurin end point); assay type: cell-based; details: Pseudomonas aeruginosa, 24 h at 37 °C
Experimental: (§1) Determination of Minimum inhibitory concentrations (MIC) of flourene derivatives was done using broth microdilution method. The procedure involved preparation of twofold dilutions of the fluorene derivatives ranging from (500–7.8 μg/mL) in sterile Mueller–Hinton broth inside the wells of 96-well microplate (Sarstedt, Germany). The inoculums of test strains prepared from fresh overnight cultures were adjusted to 0.5 McFarland standards, which equals to 1–2 × 10^8 CFU/mL for bacteria, the procedure was done according to CLSI 2012 [42]. […] For this assay the positive control agents were vancomycin (range: 0.7–50 μg/mL), gentamicin (range: 0.15–10 μg/mL) and the negative control was 1% DMSO.
(§2) For proper determination of the MIC end point resazurin dye has been used. A stock solution of resazurin sodium salt powder (Titan Biotech) was prepared at 0.02% (wt/vol) in distilled water, sterilized by filtration through a […] filter into a sterile light protected container then stored protected from light at 4 °C for up to 1 week, or at − […] for long term use, then 10–15% resazurin solution of the total volume in wells was added to each well and incubation for 1–4 h at 37 °C was done. A change in color from blue to pink indicates the growth of bacteria, and MIC was defined as the lowest concentration of the drug that prevented this change in color.

[2] = tested on: E. coli; assay: as above; assay type: cell-based; details: Escherichia coli, 24 h at 37 °C
Experimental: as §1, §2

[3] = tested on: Pseudomonas aeruginosa (P. aeruginosa), multidrug resistant clinical isolate; assay: agar well diffusion assay; assay type: cell-based; details: 24 h, 500 µg/mL of tested compound
Outline: (§3)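 Multidrug-resistant clinical isolates swabbed on Mueller–Hinton agar at about 1–5 × 10^5 CFU/mL; 0.5 cm wells received 50 μL compound at 500 μg/mL in 1% DMSO. Incubation 24 h, 37 °C for bacteria and C. albicans, 25 °C for Aspergillus; inhibition zone diameter measured in mm.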

[4] = tested on: Staphylococcus aureus (S. aureus), multidrug resistant clinical isolate; assay: agar well diffusion assay; assay type: cell-based; details: Staphylococcus aureus; S. aureus; 500 µg/mL of tested compound; 24 h
Outline: as §3

[5] = tested on: Escherichia coli (E. coli), multidrug resistant clinical isolate; assay: agar well diffusion assay; assay type: cell-based; details: 24 h, 500 µg/mL of tested compound
Outline: as §3

[6] = tested on: A549 human lung cancer cells; assay: cell viability assay (MTT); assay type: cell-based; details: 24 h; for viability at 1 µg/mL: read-out: Validity (%) for sample concentrations (µg/mL) 1; for viability at 10 µg/mL: read-out: Validity (%) for sample concentrations (µg/mL) 10; for viability at 31.25 µg/mL: read-out: Validity (%) for sample concentrations (µg/mL) 31.25; for viability at 62.5 µg/mL: 62.50 µg/mL, read-out: Validity (%) for sample concentrations (µg/mL) 62.50; for viability at 125 µg/mL: read-out: Validity (%) for sample concentrations (µg/mL) 125; for viability at 250 µg/mL: read-out: Validity (%) for sample concentrations (µg/mL) 250; for viability at 500 µg/mL: read-out: Validity (%) for sample concentrations (µg/mL) 500; for viability at 1000 µg/mL: read-out: Validity (%) for sample concentrations (µg/mL) 1000
[7] = tested on: MDA-MB-231 human breast cancer cells; assay: cell viability assay (MTT); assay type: cell-based; details: 24 h; for viability at 1 µg/mL: read-out: Validity (%) for sample concentrations (µg/mL) 1; for viability at 10 µg/mL: read-out: Validity (%) for sample concentrations (µg/mL) 10; for viability at 31.25 µg/mL: read-out: Validity (%) for sample concentrations (µg/mL) 31.25; for viability at 62.5 µg/mL: read-out: Validity (%) for sample concentrations (µg/mL) 62.5; for viability at 125 µg/mL: read-out: Validity (%) for sample concentrations (µg/mL) 125; for viability at 250 µg/mL: read-out: Validity (%) for sample concentrations (µg/mL) 250; for viability at 500 µg/mL: read-out: Validity (%) for sample concentrations (µg/mL) 500
Outline: (§4)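 Cells were grown in RPMI-1640 with 10% heat-inactivated FBS, seeded at 5000 cells/well, and next day exposed to fluorene derivatives at 0, 1, 10, 31.25, 62.5, 125, 250 or 500 µg/mL for 24 h. Viability was then measured by MTT, absorbance at 570 nm.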

[8] = tested on: WI-38 human normal fibroblast cells; assay: cell viability assay (MTT); assay type: cell-based; details: 24 h; for viability at 31.25 µg/mL: read-out: Validity (%) for sample concentrations (µg/mL) 31.25; for viability at 62.5 µg/mL: 62.50 µg/mL, read-out: Validity (%) for sample concentrations (µg/mL) 62.50; for viability at 125 µg/mL: read-out: Validity (%) for sample concentrations (µg/mL) 125; for viability at 250 µg/mL: read-out: Validity (%) for sample concentrations (µg/mL) 250; for viability at 500 µg/mL: read-out: Validity (%) for sample concentrations (µg/mL) 500
Outline: as §4

[9] = tested on: A549 cells; assay: FACS analysis, Annexin V and PI staining; assay type: cell-based, human; details: 24 h, 5g 500, 6c 85, 6d 117, 6k 200 µg/mL
Experimental: (§5) To uncover the mechanism of cell death for the compounds 5h, 6c, 6d and 6k on WI-38, A549, and MDA-MB-231 cells; Annexin v and propedium Iodide (PI) were used. In brief, WI-38, A549, MDA-MB-231 cells were cultured in 10 tissue culture dish with initial number 4 × 10^5 cell/Ml in RPMI growth media. In the following day, cells were treated with 6c, 6d and 6k as the following; (0.0, 500 μg/mL form each drug for WI-38 treatment, 0.0, 85, 117 and 200 μg/mL; respectively, for […] and 0.0, 250 from each for MDA-MB-231 cells treatment). After 24 h incubations, cells were washed and trypsinized and suspended in 50 μL 1X Annexin v binding buffer followed by adding 5 μL FITC Annexin V and incubated for 15 min at room temperature then 5 μL of PI were added to each tube. Finally, 400 μL of 1X Annexin v binding buffer were added to each tube and analyzed using Becton-Dickinson FACS Caliber.

[10] = tested on: WI-38 cells; assay: FACS analysis, Annexin V and PI staining; assay type: cell-based, human; details: 24 h, 5g 1000 µg/mL, 6c, 6d, 6k 500 µg/mL
Experimental: as §5

[11] = tested on: MDA-MB-231 cells; assay: FACS analysis, Annexin V and PI staining; assay type: cell-based, human; details: 24 h, 5g 500, 6c 105, 6d 170, 6k 130 µg/mL
Experimental: To uncover the mechanism of cell death for the compounds 5h, 6c, 6d and 6k on WI-38, A549, and MDA-MB-231 cells; Annexin v and propedium Iodide (PI) were used. In brief, WI-38, A549, MDA-MB-231 cells were cultured in 10 tissue culture dish with initial number 4 × 10^5 cell/Ml in RPMI growth media. […] After 24 h incubations, cells were washed and trypsinized and suspended in 50 μL 1X Annexin v binding buffer followed by adding 5 μL FITC Annexin V and incubated for 15 min at room temperature then 5 μL of PI were added to each tube. Finally, 400 μL of 1X Annexin v binding buffer were added to each tube and analyzed using Becton-Dickinson FACS Caliber.

[12] = tested on: S. aureus; assay: MIC by broth microdilution method (resazurin end point); assay type: cell-based; details: Staphylococcus aureus; S. aureus; 24 h at 37 °C; read-out: MIC
Experimental: as §1, §2

[13] = tested on: methicillin-resistant Staphylococcus aureus (MRSA); assay: agar well diffusion assay; assay type: cell-based; details: Staphylococcus aureus, 500 µg/mL of tested compound, 24 h
Outline: as §3

[14] = tested on: Klebsiella pneumoniae (K. pneumoniae), multidrug resistant clinical isolate; assay: agar well diffusion assay; assay type: cell-based; details: 24 h, 500 µg/mL of tested compound
Outline: as §3

Compound	zone of inhibition at 500 µg/mL [4]	viability at 1 µg/mL [6]	viability at 10 µg/mL [6]	viability at 31.25 µg/mL [6]	viability at 62.5 µg/mL [6]	viability at 125 µg/mL [6]	viability at 250 µg/mL [6]	viability at 500 µg/mL [6]	viability at 1000 µg/mL [6]	IC50 [6]	viability at 1 µg/mL [7]	viability at 10 µg/mL [7]	viability at 31.25 µg/mL [7]	viability at 62.5 µg/mL [7]	viability at 125 µg/mL [7]	viability at 250 µg/mL [7]	viability at 500 µg/mL [7]	IC50 [7]	viability at 31.25 µg/mL [8]	viability at 62.5 µg/mL [8]	further results
O=C1CSC(c2ccco2)N1c1nc(-c2cc(Cl)cc3c2-c2ccc(Cl)cc2C3)cs1 (centres unmarked) [5j, 3-(4-(2,7-Dichloro-9H-fluoren-4-yl)thiazol-2-yl)-2-(furan-2-yl)thiazolidin-4-one]	6 mm	92.9%	84.6%	83.6%	82.5%	81.6%	77.5%	71.4%	52.5%	1050 µg/mL (≈ 2150 µM)	94.4%	74.8%	67%	61.4%	60.2%	57.2%	49.3%	435 µg/mL (≈ 896 µM)	84.2%	66.1%	MIC [1]: 62.5 µg/mL (≈ 129 µM); MIC [2]: 62.5 µg/mL (≈ 129 µM); zone of inhibition at 500 µg/mL [3]: 8 mm; zone of inhibition at 500 µg/mL [5]: 10 mm; melting point: 139 to 141 °C; viability at 125 µg/mL [8]: 61.5%; viability at 250 µg/mL [8]: 39.1%; viability at 500 µg/mL [8]: 38.5%; IC50 [8]: 196 µg/mL (≈ 404 µM)
O=C(O)c1ccc(C2SCC(=O)N2c2nc(-c3cc(Cl)cc4c3-c3ccc(Cl)cc3C4)cs2)cc1 (centres unmarked) [5g, 4-(3-(4-(2,7-Dichloro-9H-fluoren-4-yl)thiazol-2-yl)-4-oxothiazolidin-2-yl)benzoic acid]	10 mm	93.7%	90.3%	88.7%	78.6%	84.1%	75.7%	56.3%	16.8%	572 µg/mL (≈ 1060 µM)	92.6%	87.3%	80.9%	72.2%	67.7%	63.2%	58.5%	> 500 µg/mL	96.7%	95.1%	apoptotic cell death (of total cell number) [9]: 1.25%; necrotic cell death (of total cell number) [9]: 16.7%; apoptotic cell death (of total cell number) [10]: 1.5%; necrotic cell death (of total cell number) [10]: 15.8%; apoptotic cell death (of total cell number) [11]: 1.34%; necrotic cell death (of total cell number) [11]: 14.1%; viability at 125 µg/mL [8]: 90.2%; viability at 250 µg/mL [8]: 85.8%; viability at 500 µg/mL [8]: 79.2%; IC50 [8]: > 500 µg/mL
CN(C)c1ccc(C2C(Cl)C(=O)N2c2nc(-c3cc(Cl)cc4c3-c3ccc(Cl)cc3C4)cs2)cc1 (centres unmarked) [6e, 3-Chloro-1-(4-(2,7-dichloro-9H-fluoren-4-yl)thiazol-2-yl)-4-(4-(dimethylamino)phenyl)-azetidin-2-one]	12 mm	95.4%	90.3%	87.5%	81.7%	71.1%	50.7%	33.2%	28.8%	276 µg/mL (≈ 510 µM)	98.2%	90.2%	89.9%	85.2%	69.2%	41.9%	39.4%	215 µg/mL (≈ 397 µM)	68.8%	52.5%	MIC [12]: 62.5 µg/mL (≈ 116 µM); melting point: 110 to 111 °C; viability at 125 µg/mL [8]: 45.6%; viability at 250 µg/mL [8]: 38.6%; viability at 500 µg/mL [8]: 26.8%; IC50 [8]: 65.4 µg/mL (≈ 121 µM)
COc1cc(C2SCC(=O)N2c2nc(-c3cc(Cl)cc4c3-c3ccc(Cl)cc3C4)cs2)ccc1O (centres unmarked) [5h, 3-(4-(2,7-Dichloro-9H-fluoren-4-yl)thiazol-2-yl)-2-(4-hydroxy-3-methoxyphenyl)thiazolidin-4-one]	11 mm	92.9%	91.4%	90.3%	88.7%	85.7%	82.7%	77.2%	68%	1610 µg/mL (≈ 2970 µM)	90.9%	82.8%	79.3%	76.8%	71.7%	61.7%	56.7%	> 500 µg/mL	95%	81.7%	MIC [12]: 62.5 µg/mL (≈ 115 µM); melting point: 85 to 87 °C; viability at 125 µg/mL [8]: 78.7%; viability at 250 µg/mL [8]: 72.8%; viability at 500 µg/mL [8]: 66.2%; IC50 [8]: > 500 µg/mL
O=C1C(Cl)C(c2ccncc2)N1c1nc(-c2cc(Cl)cc3c2-c2ccc(Cl)cc2C3)cs1 (centres unmarked) [6m, 3-Chloro-1-(4-(2,7-dichloro-9H-fluoren-4-yl)thiazol-2-yl)-4-(pyridin-4-yl)azetidin-2-one]	4 mm	91.5%	81.8%	67.6%	65.9%	62.7%	58.7%	54.1%	49.8%	830 µg/mL (≈ 1660 µM)	93.2%	89.9%	77.6%	73.2%	67.1%	63.4%	59.5%	> 500 µg/mL	78.5%	72.8%	MIC [2]: 15.6 µg/mL (≈ 31.3 µM); zone of inhibition at 500 µg/mL [13]: 6 mm; zone of inhibition at 500 µg/mL [14]: 3 mm; zone of inhibition at 500 µg/mL [5]: 27 mm; melting point: 249 to 250 °C; viability at 125 µg/mL [8]: 68.5%; viability at 250 µg/mL [8]: 63%; viability at 500 µg/mL [8]: 55.7%; IC50 [8]: > 500 µg/mL
